ChEMBL document CHEMBL1201862, “PubChem BioAssay data set” (2004)
The source made the active and inactive calls.

Key:
Cytochrome P450 2C19 = Cytochrome P450 2C19 (Homo sapiens, UniProt P33261); test: Cytochrome panel assay with activity outcomes. Panel member name: p450-cyp2c19 Compounds with AC50 equal or less than 10 uM are considered active; type: functional
Cytochrome P450 3A4 = Cytochrome P450 3A4 (Homo sapiens, UniProt P08684);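 further: CYP3A4 tested as one member of a cytochrome P450 panel screen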
[1] = inhibitors of SNCA 5'UTR-driven reporter translation, confirmation, H4 neuroglioma cells, luminescence (AID 1988); type: functional, cell-based
[2] = Luminescence Cell-Based Dose Response HTS to Identify Inhibitors of 5'UTR Stem-Loop Driven Prion Protein mRNA Translation in H4 Neuroglioblastoma Cells. [Related pubchem assays: 1827 (Project Summary), 1813 (Primary HTS)]; type: functional
[3] = inhibitors of firefly luciferase expression or activity, dose response, H4 neuroglioma cells, luminescence (AID 1990); type: functional, cell-based
[4] = biological target: T1, Corticotropin-releasing factor receptor 2/Corticotropin-releasing factor-binding protein (Homo sapiens, UniProt P24387+Q13324); test: activators of CRF receptor 2 with binding protein – uHTS hits, confirmation (AID 602473); type: functional; conditions: read-out: EC50_Mean
T1 sequence (Q13324 whole entry): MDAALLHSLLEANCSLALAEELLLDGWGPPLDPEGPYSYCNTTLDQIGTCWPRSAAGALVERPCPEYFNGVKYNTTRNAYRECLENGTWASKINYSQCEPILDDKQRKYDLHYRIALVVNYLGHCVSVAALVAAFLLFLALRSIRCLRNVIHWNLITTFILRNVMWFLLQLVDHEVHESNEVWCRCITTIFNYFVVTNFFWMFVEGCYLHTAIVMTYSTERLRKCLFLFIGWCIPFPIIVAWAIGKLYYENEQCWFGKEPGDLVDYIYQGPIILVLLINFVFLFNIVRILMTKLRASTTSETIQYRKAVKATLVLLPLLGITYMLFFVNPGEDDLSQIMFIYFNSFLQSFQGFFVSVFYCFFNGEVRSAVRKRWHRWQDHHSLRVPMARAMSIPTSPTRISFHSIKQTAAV
T1 sequence (P24387 whole entry): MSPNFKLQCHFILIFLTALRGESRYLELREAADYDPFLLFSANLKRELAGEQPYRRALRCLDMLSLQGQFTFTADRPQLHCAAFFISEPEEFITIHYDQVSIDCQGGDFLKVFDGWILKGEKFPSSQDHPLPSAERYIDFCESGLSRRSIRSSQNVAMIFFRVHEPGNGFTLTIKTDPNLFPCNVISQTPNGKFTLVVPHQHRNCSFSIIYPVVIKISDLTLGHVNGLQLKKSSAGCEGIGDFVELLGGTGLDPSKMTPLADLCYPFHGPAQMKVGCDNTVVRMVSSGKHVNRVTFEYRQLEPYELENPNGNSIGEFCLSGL

[5] = biological target: T1, Corticotropin-releasing factor receptor 2/Corticotropin-releasing factor-binding protein; test: Dose Response confirmation of uHTS hits for small molecule antagonists of the CRF-binding protein and CRF-R2 receptor complex.; type: functional; conditions: read-out: IC50_Mean
[6] = biological target: T2, Calpain-2 catalytic subunit (Sus scrofa, UniProt P43367); test: pig calpain II inhibitor potency, dose response, biochemical, fluorogenic peptide substrate (AID 1420); type: functional
T2 sequence (P43367 whole entry): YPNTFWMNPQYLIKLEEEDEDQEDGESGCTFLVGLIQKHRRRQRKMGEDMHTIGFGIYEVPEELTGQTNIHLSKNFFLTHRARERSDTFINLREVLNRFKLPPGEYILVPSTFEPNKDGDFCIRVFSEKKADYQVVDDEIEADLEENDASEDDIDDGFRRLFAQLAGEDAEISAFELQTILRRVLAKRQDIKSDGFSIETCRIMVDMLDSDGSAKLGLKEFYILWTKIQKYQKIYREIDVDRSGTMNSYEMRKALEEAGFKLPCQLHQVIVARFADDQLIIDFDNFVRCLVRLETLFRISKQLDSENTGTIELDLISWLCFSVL

[7] = Luminescence Cell-Based Dose Response HTS to Identify Activators of Luciferase Translation or Activity in H4 […] Cells. [Related pubchem assays: 1829 (Project Summary), 1814 (Primary HTS)]; type: functional
H4 = test: Luminescence Cell-Based Dose Response HTS to Identify Activators of 5'UTR Stem-Loop Driven Prion Protein mRNA Translation in H4 Neuroglioblastoma Cells. [Related pubchem assays: 1829 (Project Summary), 1814 (Primary HTS)]; type: functional; conditions: Homo sapiens

Cytochrome P450 3A4, sequence (P08684 whole entry): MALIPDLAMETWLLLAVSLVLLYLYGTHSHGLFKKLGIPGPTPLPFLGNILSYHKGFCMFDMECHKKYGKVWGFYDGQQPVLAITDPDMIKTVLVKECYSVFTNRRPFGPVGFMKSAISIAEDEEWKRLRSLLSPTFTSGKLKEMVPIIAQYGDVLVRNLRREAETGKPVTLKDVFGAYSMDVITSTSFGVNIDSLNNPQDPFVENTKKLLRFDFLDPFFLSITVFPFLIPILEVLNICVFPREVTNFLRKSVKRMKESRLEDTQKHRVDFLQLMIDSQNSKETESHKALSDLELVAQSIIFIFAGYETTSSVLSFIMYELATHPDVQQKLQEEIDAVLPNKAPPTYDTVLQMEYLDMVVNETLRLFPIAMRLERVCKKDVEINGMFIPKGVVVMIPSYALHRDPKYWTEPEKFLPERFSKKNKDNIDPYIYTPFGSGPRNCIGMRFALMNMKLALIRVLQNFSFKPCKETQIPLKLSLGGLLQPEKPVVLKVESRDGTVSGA
Cytochrome P450 2C19, sequence (P33261 whole entry): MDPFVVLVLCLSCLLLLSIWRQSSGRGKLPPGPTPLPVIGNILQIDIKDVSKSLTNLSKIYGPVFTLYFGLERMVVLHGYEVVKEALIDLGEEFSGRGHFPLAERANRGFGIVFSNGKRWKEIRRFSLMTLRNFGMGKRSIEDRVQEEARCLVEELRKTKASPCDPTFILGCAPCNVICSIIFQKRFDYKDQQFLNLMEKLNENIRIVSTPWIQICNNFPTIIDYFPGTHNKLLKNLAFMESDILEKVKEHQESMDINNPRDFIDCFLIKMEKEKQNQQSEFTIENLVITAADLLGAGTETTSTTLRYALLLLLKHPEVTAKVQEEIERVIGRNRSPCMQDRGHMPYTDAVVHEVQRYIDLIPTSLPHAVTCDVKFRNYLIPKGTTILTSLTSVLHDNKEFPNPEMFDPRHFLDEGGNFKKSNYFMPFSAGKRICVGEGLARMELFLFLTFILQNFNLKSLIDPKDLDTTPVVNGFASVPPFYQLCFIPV

O=C1[C@@H]2[C@H]3[C@H](O)[C@H](O)C/C(=N/OC[C@@H](O)COCc4ccco4)[C@@H]3CC[C@H]2C(=O)N1c1ccc(F)cc1F
AC50 (Cytochrome P450 2C19): inconclusive | AC50 (Cytochrome P450 3A4): 3.16 µM (inconclusive)

O=C(/C=C\Nc1ccc(S(=O)(=O)Nc2ncccn2)cc1)c1cccc2ccccc12
EC50 [1]: > 120 µM (not active) | EC50 [2]: > 120 µM (not active) | EC50 [3]: 18.3 µM (active)

CCN(c1ccccc1)S(=O)(=O)c1ccc(NC(=S)NC(=O)c2cccs2)cc1
AC50 (Cytochrome P450 3A4): 2.24 µM (inconclusive)

N#CNC(=Nc1cccc(F)c1)SCc1ccccc1
EC50 [4]: > 53 µM (inactive) | IC50 [5]: 14 µM (active)

Cc1ccc(C(=O)N2C(=O)C(c3ccccc3)Oc3ccccc32)cc1 (centres undefined)
EC50 [1]: > 120 µM (not active) | EC50 [2]: > 120 µM (not active) | EC50 [3]: > 120 µM (not active)

CCC(=O)OCC(=O)c1cc(C)n(-c2ccc(Br)cc2)c1C
IC50 [6]: 6.49 µM (not active)

CC(OC(=O)c1ccccc1Nc1ccc(SC(F)F)cc1)C(N)=O (centres undefined)
IC50 [6]: 12 µM (not active)

CSCCC(NS(=O)(=O)c1ccc(Cl)cc1)C(=O)OCC(=O)N1CCCc2ccccc21 (centres undefined)
IC50 [6]: 14.6 µM (not active)

Cc1[nH]c2ccccc2c1SCCNC(=O)c1ccc(S(=O)(=O)N2CCCC2)cc1
EC50 [4]: > 53 µM (inactive) | IC50 [5]: > 47.1 µM (inactive)

c1ccc(CSc2nnc3c4ccccc4c4ccccc4c3n2)cc1
AC50 (Cytochrome P450 3A4): 3.98 µM (inconclusive)

Nc1cc(O)nc(SCCSc2ccccc2F)n1
EC50 [1]: 1.29 µM (active) | EC50 [2]: 22.3 µM (active) | EC50 [3]: < 0.1 µM (active)

COc1ccc(C(NC(=O)C(C)C)c2c(O)ccc3ccccc23)cc1OC (centres undefined)
IC50 [6]: 18.4 µM (not active)

CNC(=O)CN(C1CCCCC1)S(=O)(=O)c1ccc(F)cc1
EC50 [4]: > 53 µM (inactive) | IC50 [5]: > 47.1 µM (inactive)

CCN(CC)S(=O)(=O)c1ccc(C(=O)NCc2ccc3c(c2)OCO3)cc1
IC50 [6]: > 50 µM (not active)

O=C(CC1CC2CCC1C2)OCC(=O)c1c[nH]c2ccccc12 (centres undefined)
IC50 [6]: 27.5 µM (not active)

Cc1cc(Br)ccc1SCC(=O)OCC(=O)c1c(N)n(C)c(=O)n(C)c1=O
IC50 [6]: 10.8 µM (active)

COCCCNc1nc(N)c([N+](=O)[O-])c(Nc2cc(OC)ccc2OC)n1
EC50 [1]: 17.8 µM (active) | EC50 [2]: 13.5 µM (active) | EC50 [3]: 17.4 µM (active)

CCCCCC(=O)Nc1ccccc1N1CCOCC1
EC50 [1]: > 120 µM (not active) | EC50 [2]: > 120 µM (not active) | EC50 [3]: > 120 µM (not active)

CCOC(=O)c1ccccc1NC1c2ccccc2C(=O)N1c1ccc(C)cn1 (centres undefined)
EC50 [7]: 9.17 µM (active) | EC50 (H4): 18.5 µM (active)
